Like-named read-outs stand apart in the source and are kept apart here. Values belong to the compound of their own block, whether it stands above or below them. *1 amine or outer side, *2 acyl side, *3 side chain or, on linkers, in order; H or OH if unused. Where a SMILES comes first, the peptide text is derived from it. Side-chain parts run from the residue outwards. [ ]: non-standard residue; d: D form. The star is where a group is joined. γGlu = O=C(O)[C@H](CCC(=O)[*:2])N[*:1]; Stearoyl = CCCCCCCCCCCCCCCCCC(=O)*; Nle = CCCC[C@H](N)C(=O)O; AEEA = NCCOCCOCC(=O)O; Aib = CC(C)(N)C(=O)O
Experiments:
[1] = Pharmacokinetics in Goettingen minipigs; type: in vivo, minipig; conditions: for CL / t1/2 / AUCext / F / AUC / C0 / Vd / Cmax / Tmax: female Göttingen minipig; for CL / t1/2 / AUC / C0 / Vd / Cmax / Tmax: LC-MS; for CL / t1/2 / AUC / C0 / Vd / Cmax: non-compartmental analysis; for AUC / C0 / Vd / Cmax / Tmax: 1 mg/kg; for Vd: read-out: Vss
Protocol: Goettingen minipigs (Ellegaard Göttingen Minipigs A/S, Soroe Landevej 302, DK-4261 Dalmose, Denmark) were dosed with the study peptide at a dose of 1 mg/kg IV and SC routes (0.1 mg/mL). Blood samples were collected from individual animals at the following time points: 0.083, 0.25, 0.5, 2, 4, 6, 8, 24, 48, 72, 96 and 168 h (IV route) and 0.25, 0.5, 2, 4, 6, 8, 24, 48, 72, 96 and 168 h (SC route). All samples, collected into K3-EDTA tubes, were centrifuged and plasma was harvested and stored at − 80 °C until analysis. Three hundred μL of 1% tri-fluoro acetic acid in acetonitrile containing 10 ng/mL irbesartan as internal standard were added to 30 μL of standard, QC and PK study samples to precipitate the plasma proteins. Each sample was vortexed and centrifuged, for 5 min, at 4000 rpm and at 4 °C. Two hundred and fifty microliters of supernatant were collected and evaporated under nitrogen at 37 °C in LoBIND 96 well plates. 150 µL of water/acetonitrile (90/10, v/v) were added to dissolve the evaporates and 10 µL of the extracted plasma samples were injected onto the column. Chromatographic separation was performed on a Thermo Vanquish (Thermo Scientific) chromatography system using a UPLC HSS T3, (50 mm × 2.1 mm I.D., 1.8 μm, Waters Corporation) with a flow rate of 0.600 mL/min at 40 °C and a two-solvent linear gradient system. Solvents A (water) and B (acetonitrile) contained both 0.1% formic acid. […] The Vanquish was coupled to an Orbitrap QExactive™ mass spectrometer (Thermo Scientific) in positive mode. Quantitation was performed in full scan. The optimized source parameters were as follows: ion spray voltage 3.8 kV, sheath gas flow 70 a.u., aux gas flow 10 a.u., aux T 300 °C, capillary T 250 °C, S-lens RF level 60%. Full MS parameters were as follows: mass range 150–2000, AGC target 1 × 10^6, max injection time 250 ms, resolution 70,000 (FWHM @ 200 m/z). Data processing was performed using Xcalibur 3.0 (Thermo Scientific). Ion current of the [M + 5H]5 + of the SA10SC-RLX was extracted with 5 ppm window for quantitation (814.47219 m/z). A calibration curve with 9 standard points was prepared freshly on the day of analysis by spiking appropriate amounts of an intermediate working standard solution into blank rat plasma and ranged from 10 to 4000 ng/mL (2.46–983 nM). Three QC samples, each at four concentration levels from […] to 3200 ng/mL (7.86–786 nM), were used for all analyses. Calibration curves were prepared by plotting the analyte to internal standard peak area ratio versus concentration. Calibration standards were fit by linear regression with 1/x^2 weighting. QC samples (n = 3) were used at six concentration levels. Accepted calibration curve contained minimum 7 concentration levels within ± 20% of nominal (± 25% at the Lower Limit of Quantitation). Accepted QCs were within ± 20% of nominal. PK parameters were calculated using a non-compartmental analysis with Phoenix WinNonLin version 6.4 software.

[2] = biological target: T1, hRXFP1 (S69P/F76V) (Homo sapiens, UniProt Q9HBX9, F76V/S69P); experiment: cAMP production in HEK cells expressing hRXFP1 (S69P/F76V); type: cell-based; conditions: hRXFP1 F76V-S69P dual mutant, n = 4 experiments in duplicate
T1 sequence (Q9HBX9 1-757 S69P/F76V): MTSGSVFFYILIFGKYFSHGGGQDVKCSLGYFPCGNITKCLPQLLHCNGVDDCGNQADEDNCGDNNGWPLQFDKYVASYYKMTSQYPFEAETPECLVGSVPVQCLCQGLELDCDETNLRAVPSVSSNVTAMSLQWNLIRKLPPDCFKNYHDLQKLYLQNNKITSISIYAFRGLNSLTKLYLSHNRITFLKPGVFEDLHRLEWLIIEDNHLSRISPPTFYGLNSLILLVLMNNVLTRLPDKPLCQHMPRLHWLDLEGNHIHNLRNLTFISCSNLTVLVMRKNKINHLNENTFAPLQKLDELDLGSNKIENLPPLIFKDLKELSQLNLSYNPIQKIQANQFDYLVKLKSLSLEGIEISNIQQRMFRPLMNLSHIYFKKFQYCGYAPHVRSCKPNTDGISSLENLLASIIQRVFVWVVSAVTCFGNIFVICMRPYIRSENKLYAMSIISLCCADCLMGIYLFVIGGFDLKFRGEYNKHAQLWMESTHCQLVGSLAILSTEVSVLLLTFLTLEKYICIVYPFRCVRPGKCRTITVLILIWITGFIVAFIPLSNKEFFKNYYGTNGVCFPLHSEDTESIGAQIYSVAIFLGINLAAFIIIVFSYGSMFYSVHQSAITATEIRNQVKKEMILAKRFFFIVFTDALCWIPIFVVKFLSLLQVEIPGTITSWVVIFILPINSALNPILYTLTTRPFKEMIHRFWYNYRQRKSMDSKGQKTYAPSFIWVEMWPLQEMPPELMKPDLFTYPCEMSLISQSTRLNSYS
Protocol: HEK cells were stably transduced with lentiviral constructs (Vectalys, MOI 20, batches rV2.1A1.5057 B, rV2.1A1.5056 B and rV2.1A1.5059 B) containing a bicistronic vectors encoding hRXFP1 (S69P) or hRXFP1 (F76V) or hRXFP1 (S69P/F76V) under the EF1 promoter followed by an internal ribosome entry site (IRES) elements to express the neomycin antibiotic resistance gene for selection with 500 μg/mL Geneticin (Invitrogen, #10131-019). Three days post transduction, HEK cells were grown in the presence of Genetecin. Positive individual clones were selected and amplified, and cAMP readout (nM) was used as described for other cell types at a cell density of 8000 cells/well.

[3] = female, Göttingen, minipig, plasma, iv, IV 1 mg/kg, animal 1
[4] = female, Göttingen, minipig, plasma, iv, IV 1 mg/kg, animal 2
[5] = female, Göttingen, minipig, plasma, sc, SC 1 mg/kg, animal 3
[6] = female, Göttingen, minipig, plasma, sc, SC 1 mg/kg, animal 4

- CL ([1]; IV 1 mg/kg, plasma, animal 1): 0.130 mL/min/kg
- t1/2 ([1]; IV 1 mg/kg, plasma, animal 1): 7.06 h
- CL ([1]; IV 1 mg/kg, plasma, animal 2): 0.151 mL/min/kg
- t1/2 ([1]; IV 1 mg/kg, plasma, animal 2): 6.92 h
- AUCext ([1]; IV 1 mg/kg, plasma, animal 1): 0.462%
- AUCext ([1]; IV 1 mg/kg, plasma, animal 2): 0.479%
- F ([1]; SC 1 mg/kg vs IV 1 mg/kg, animal 3): 81%
- F ([1]; SC 1 mg/kg vs IV 1 mg/kg, animal 4): 56%
- AUCext ([1]; SC 1 mg/kg, plasma, animal 3): 3.16%
- AUCext ([1]; SC 1 mg/kg, plasma, animal 4): 1.83%
- AUC [1, 3]: 31.9 µM·h
- C0 [1, 3]: 9.36 µM
- AUC [1, 4]: 27.1 µM·h
- C0 [1, 4]: 8.57 µM
- Vd ([1]; female, Göttingen, minipig, plasma, iv, IV 1 mg/kg, plasma, animal 1): 0.0439 L/kg
- Vd ([1]; female, Göttingen, minipig, plasma, iv, IV 1 mg/kg, plasma, animal 2): 0.0497 L/kg
- AUC [1, 5]: 23.8 µM·h
- Cmax [1, 5]: 1420 nM
- AUC [1, 6]: 16.6 µM·h
- Cmax [1, 6]: 1450 nM
- Tmax [1, 5]: 6 h
- Tmax [1, 6]: 4 h
- clearance ([1]; female, Göttingen, minipig, plasma, minipigs, IV 1 mg/kg, n = 2): 0.14 mL/min/kg
- bioavailability ([1]; female, Göttingen, minipig, plasma, minipigs, SC 1 mg/kg vs IV 1 mg/kg, read-out: bioavailability (ratio of scAUC/ivAUC)): ~70%
- level at time molar at 12 h ([1]; female, Göttingen, minipig, plasma, minipigs, SC 1 mg/kg, read-out: plasma concentration after 12 h): ~1000 nM
- apparent terminal half-life ([1]; minipigs, IV 1 mg/kg, n = 2): 7 h
Compound: CCCCCCCCCCCCCCCCCC(=O)N[C@@H](CCC(=O)N[C@@H](CCC(=O)N[C@@H](CCC(=O)NCCOCCOCC(=O)NCCOCCOCC(=O)NCCOCCOCC(=O)NCCCC[C@H](NC(=O)[C@H](CCCCNC(C)=O)NC(=O)[C@H](CCCCN)NC(=O)[C@H](CCCNC(=N)N)NC(=O)C(C)(C)NC(=O)[C@H](CO)NC(=O)[C@H](Cc1c[nH]c2ccccc12)NC(=O)[C@@H](NC(=O)[C@H](CO)NC(=O)[C@H](CCCC)NC(=O)CNC(=O)[C@H](CCC(=O)O)NC(=O)C(C)(C)NC(=O)C(C)(C)NC(=O)[C@@H](NC(=O)[C@H](CCCCNC(C)=O)NC(=O)[C@H](C)NC(=O)[C@H](CCCNC(=N)N)NC(=O)[C@@H](NC(=O)[C@H](CCCCN)NC(=O)[C@H](CCC(=O)O)NC(=O)[C@H](CCCNC(=N)N)NC(=O)CNC(=O)[C@H](CCC(=O)O)NC(=O)[C@H](CC(C)C)NC(C)=O)C(C)C)[C@@H](C)CC)[C@@H](C)O)C(N)=O)C(=O)O)C(=O)O)C(=O)O [SA10SC-RLX] (Ac-LEGREKVRAK(Ac)I[Aib][Aib]EG[Nle]STWS[Aib]RKK(Ac)K([AEEA-AEEA-AEEA-γGlu-γGlu-γGlu-Stearoyl])-NH2)

Compound: relaxin
- cAMP response (efficacy) [2]: reduced in all RXFP1 mutants compared to the wild type construct

Reference: publication PMC9705314, “Characterization of a new potent and long-lasting single chain peptide agonist of RXFP1 in cells and in vivo translational models” (Scientific Reports, 2022)
